In patent US10927100B2, “Degradable imidazolium oligomer and polymer for antimicrobial applications” (AGENCY FOR SCIENCE, TECHNOLOGY AND RESEARCH, priority 2017, dated 2021):
Converted amounts (≈) assume the structure as drawn. Where two headings read alike, the source gives them in different places.

Tests used:
[1] = system: Candida albicans (ATCC 10231, fungus); assay: Minimum inhibitory concentration, microdilution assay; assay type: cell-based; details: for MIC: Candida albicans, ATCC10231
Protocol: (§1) Staphylococcus aureus (ATCC 6538, Gram-positive), Escherichia coli (ATCC 8739, Gram-negative), Pseudomonas aeruginosa (Gram-negative), and Candida albicans (ATCC 10231, fungus) were used as representative microorganisms to challenge the antimicrobial functions of the imidazolium salts. All bacteria and fungus were stored frozen at −80° C., and were grown overnight at 37° C. in Mueller Hinton Broth (MHB) prior to experiments. Fungus was grown overnight at 22° C. in Yeast Mold (YM) broth. […] The plates were incubated at 37° C. for 24 hours with constant shaking speed at 300 rpm. […] PBS solution containing microbial cells alone were used as negative controls. The assay was performed in four replicates and the experiments were repeated at least two times.

[2] = system: Pseudomonas aeruginosa (Gram-negative); assay: as above; assay type: cell-based; details: for MIC: Pseudomonas aeruginosa
Protocol: as §1

[3] = system: Staphylococcus aureus (ATCC 6538, Gram-positive); assay: as above; assay type: cell-based
Protocol: as §1

[4] = system: Escherichia coli (ATCC 8739, Gram-negative); assay: as above; assay type: cell-based; details: for MIC: Escherichia coli, ATCC8739
Protocol: as §1

rat red blood cells = assay: Haemolysis; assay type: cell-based
Protocol: Fresh rat red blood cells (RBCs) were diluted with PBS buffer to give an RBC stock suspension (4 vol % blood cells). A 100 μL aliquot of RBC suspension was added into a 96-well plate containing 100 μL oligomer solutions of various concentrations (ranging from 4 mg mL^−1 to 2 μg mL^−1 in serial two-fold dilutions in PBS). After 1 hour incubation at 37° C., the contents of each well were pipetted into a micro-centrifuge tube and centrifuged at 2000 rpm for 5 minutes. Aliquots (100 μL) of the supernatant were transferred to a new 96-well plate. Haemolytic activity was determined as a function of haemoglobin release by measuring OD576 of 100 μL of the supernatant using a microplate reader (TECAN). A control solution that contained only PBS was used as a reference for 0% haemolysis. Absorbance of red blood cells lysed with 0.5% Triton-X was taken as 100% haemolysis. The data were expressed as mean and S.D. of four replicates, and the tests were repeated two times.

S. aureus [5] = assay: Resistance studies, serial passage at sub-MIC; assay type: cell-based, Staphylococcus aureus; details: for resistance to polymers IBN-CP1 or IBN-CP3 after growth with degradation product: media containing 2, 8, 16 and 100 μg/ml over one month
Protocol: The method was adapted from that of Yang and co-authors with modification [K. Fukushima, S. Liu, H. Wu, A. C. Engler, D. J. Coady, H. Maune, J. Pitera, A. Nelson, N. Wiradharma, S. Venkataraman, Y. Huang, W. Fan, J. Y. Ying, Y. Y. Yang, J. L. Hedrick. Nature Comm, 2013, 4:2861]. Drug resistance was induced by treating S. aureus repeatedly with degradable oligomers. First MICs of the tested oligomers were determined against S. aureus using the broth microdilution method. Then serial passaging was initiated by transferring bacterial suspension grown at the sub-MIC of the oligomers (½ of MIC at that passage) and was subjected to another MIC assay. After 24 hours incubation period, cells grown at the sub-MIC of the test compounds/antibiotics were once again transferred and assayed for MIC. The MIC against S. aureus was tested for 16 passages.
Drug-resistant behaviour of S. aureus was evaluated by recording the changes in the MIC normalized to that of the first passage. Conventional antibiotics vancomycin was used as the control.

P. aeruginosa = assay: Agar well diffusion assay; assay type: cell-based, Pseudomonas aeruginosa
Protocol: (§2) The degradable oligomers were dissolved in ethanol and glycerol at 0.5% w/v concentration. Agar plates were inoculated with bacteria and 6 mm wells were cut, into which 20 μL of solution was added. Plates were inoculated at 37° C. for 24 hours and zone of inhibitions measured using a pair of vernier calipers.

S. aureus [6] = assay: Agar well diffusion assay; assay type: cell-based, Staphylococcus aureus
Protocol: as §2

[7] = Oligomer and polymer degradation by 1H NMR spectroscopy; assay type: physicochemical; details: pH 6-8 buffered solutions, ambient conditions
Protocol: Sorenson's phosphate buffer (pH, 6.0, 7.0, 8.0), tris buffer (pH 6.0, 7.0, 8.0) and sodium citrate-citric acid buffer (pH 3.0, 4.0, 5.0) were prepared in deionized water at concentrations of 100 mM, as well as 10 mM for tris buffer solution. […] A 4 mg sample of imidazolium oligomer or polymer was dissolved in deuterated buffer solution with care taken to ensure complete solution of the compounds. […] Degradation of the carbonate and ester-linked compounds was observed by disappearance of the signal of the methylene protons adjacent to the carbonate or ester functional group, and/or appearance of the signal of the methylene protons adjacent to the hydroxyl group in the degradation product.

E. coli and S. aureus = assay: SEM observation of bacteria treated with oligomers; assay type: cell-based; details: 4MIC, exposure two minutes
Protocol: Bacterial cells (3×10^8 CFU/mL) grown in MHB without or with the oligomers at 4MIC for 2 minutes were collected and centrifuged at 5000 rpm for 5 minutes. The precipitates were washed twice with PBS buffer. Then the samples were fixed with glutaraldehyde (2.5%) for 2 hours followed by washing with DI water. Dehydration of the samples was performed using a series of ethanol/water solution (35%, 50%, 75%, 90%, 95% and 100%). The dehydrated samples were mounted on copper tape. After drying for 2 days, the samples were further coated with platinum for imaging with JEOL JSM-7400F (Japan) field emission scanning electron microscope operated at an accelerating voltage of 5 keV.

[8] = Critical gelation concentration in alcohols; assay type: physicochemical
Protocol: Gels were prepared by weighing the imidazolium oligomers directly into 4 mL glass vials and subsequently adding a known weight or volume of the solvent. The vials containing both the imidazolium and the solvent were either heated or sonicated to aid the dissolution process. The vials were left standing over night at ambient conditions. The gel state was evaluated by the stable-to-inversion-of-a-test-tube method. The critical gelation concentration (CGC) is defined as the lowest concentration of the gelator which leads to a stable gel.

E. coli = assay: Agar well diffusion assay; assay type: cell-based, Escherichia coli
Protocol: as §2

[9] = rat red blood cells, 1 hour, 37° C.
[10] = Staphylococcus aureus, ATCC6538; read-out: MIC S. aureus
[11] = 0.5% w/v solution in glycerol, compared with ethanol solution

Row | SMILES | MIC C. albicans [1] [µg/mL] | MIC P. aeruginosa [2] [µg/mL] | MIC S. aureus [3] [µg/mL] | MIC E. coli [4] [µg/mL] | HC10 (rat red blood cells; [9]) [µg/mL] | also measured
1 | CCCCCCCCn1cc[n+](Cc2ccc(Cn3cc[n+](Cc4ccc(C[n+]5ccn(Cc6ccc(CN)cc6)c5)cc4)c3)cc2)c1.[Br-].[Br-].[Br-] [F1-CH2NH2] | 62 | 250 | 125 | 16 | 1000 | 
2 | CCCCCCCCn1cc[n+](Cc2ccc(Cn3cc[n+](Cc4ccc(C[n+]5ccn(Cc6ccc(CO)cc6)c5)cc4)c3)cc2)c1.[Br-].[Br-].[Br-] [F1-CH2OH] | 250 | 2000 | >2000 | 2000 | >2000 | hemolysis at highest concentration (rat red blood cells; 2000 μg/ml): did not induce hemolysis
3 | CCCCCCCCn1cc[n+](Cc2ccc(Cn3cc[n+](Cc4ccc(C[n+]5ccn(Cc6ccc(C(=O)O)cc6)c5)cc4)c3)cc2)c1.[Br-].[Br-].[Br-] [F1-COOH] | 500 | >2000 | 62 | 31 |  | 
4 | OCc1ccc(Cn2cc[n+](C/C=C/Cn3cc[n+](Cc4ccc(CO)cc4)c3)c2)cc1 [F-diol1] |  |  |  |  | >2000 | MIC ([1]; read-out: MIC C. albicans): > 2000 µg/mL; MIC ([1]; read-out: MIC CA): > 2000 µg/mL; MIC ([2]; read-out: MIC P. aeruginosa): 2000 µg/mL; MIC ([2]; read-out: MIC PA): 2000 µg/mL; MIC [3, 10]: 125 µg/mL; MIC ([3]; Staphylococcus aureus, ATCC6538; read-out: MIC SA): 12 µg/mL; MIC ([4]; read-out: MIC E. coli): > 2000 µg/mL; MIC ([4]; read-out: MIC EC): > 2000 µg/mL; HC10 (rat red blood cells): >2000 ppm; resistance to polymers IBN-CP1 or IBN-CP3 after growth with degradation product (S. aureus [5]): did not develop resistance
5 | OCc1ccc(Cn2cc[n+](Cc3ccc(C[n+]4ccn(Cc5ccc(CO)cc5)c4)cc3)c2)cc1.[Br-].[Br-] [F-diol2] | >2000 | >2000 | 2000 | >2000 | >2000 | 
6 | OCc1ccc(Cn2cc[n+](Cc3ccccc3Cn3cc[n+](Cc4ccc(CO)cc4)c3)c2)cc1 [F-diol3] |  |  |  |  | >2000 | MIC ([1]; read-out: MIC C. albicans): > 2000 µg/mL; MIC ([2]; read-out: MIC P. aeruginosa): > 4000 µg/mL; MIC [3, 10]: 500 µg/mL; MIC ([4]; read-out: MIC E. coli): > 2000 µg/mL; resistance to polymers IBN-CP1 or IBN-CP3 after growth with degradation product (S. aureus [5]): did not develop resistance
7 | OCc1ccccc1Cn1cc[n+](C/C=C/C[n+]2ccn(Cc3ccccc3CO)c2)c1.[Br-].[Br-] [F-diol4] | >2000 | >2000 | 250 | 1000 |  | 
8 | OCc1ccccc1Cn1cc[n+](Cc2ccccc2C[n+]2ccn(Cc3ccccc3CO)c2)c1.[Br-].[Br-] [F-diol5] | >2000 | >2000 | 125 | 250 | >2000 | 
9 | CCCCCCCCn1cc[n+](Cc2ccc(Cn3cc[n+](Cc4ccc(C[n+]5ccn(Cc6ccc(OCn7cc[n+](Cc8ccc(Cn9cc[n+](Cc%10ccc(Cn%11cc[n+](CCCCCCCC)c%11)cc%10)c9)cc8)c7)cc6)c5)cc4)c3)cc2)c1.[Br-].[Br-].[Br-].[Br-].[Br-].[Br-] [IBN-HC8] | 125 | 125 | 16 | 8 | >2000 | zone of inhibition (P. aeruginosa; 0.5% w/v in ethanol): comparable zones of inhibition compared to ethanol; zone of inhibition (P. aeruginosa; [11]): comparable efficacy; zone of inhibition (S. aureus [6]; 0.5% w/v in ethanol): larger zones of inhibition than ethanol on its own; zone of inhibition (S. aureus [6]; [11]): comparable efficacy; degradation in buffered solutions [7]: not significantly degraded; bacterial cell walls in SEM images (E. coli and S. aureus): disrupted and subsequently dissolved; Critical gelation concentration ([8]; ethanol): 1.5 wt %; Critical gelation concentration ([8]; n-butanol): 1.0 wt %; Critical gelation concentration ([8]; n-propanol): 0.5 wt %; zone of inhibition (E. coli; 0.5% w/v in ethanol): larger zones of inhibition than ethanol on its own; zone of inhibition (E. coli; [11]): comparable efficacy; passage at which MIC increase was observed (S. aureus [5]; sub-MIC levels, 16 passages): 8 passage
10 | CN[C@H](CC(C)C)C(=O)N[C@H]1C(=O)N[C@@H](CC(N)=O)C(=O)N[C@H]2C(=O)N[C@H]3C(=O)N[C@H](C(=O)N[C@H](C(=O)O)c4cc(O)cc(O)c4-c4cc3ccc4O)[C@H](O)c3ccc(c(Cl)c3)Oc3cc2cc(c3O[C@@H]2O[C@H](CO)[C@@H](O)[C@H](O)[C@H]2O[C@H]2C[C@](C)(N)[C@H](O)[C@H](C)O2)Oc2ccc(cc2Cl)[C@H]1O [Vancomycin, reference compound] |  |  |  |  | >2000 | MIC ([3]; Staphylococcus aureus, ATCC6538, read-out: MIC S. aureus): 2 µg/mL (≈ 1.38 µM); change of MIC value over serial passages (S. aureus [5]; sub-MIC levels, 16 passages): quadrupled; passage at which MIC increase was observed (S. aureus [5]; sub-MIC levels, 16 passages): 5 passage
11 | CCn1cc(C(=O)O)c(=O)c2cc(F)c(N3CCNCC3)cc21 [norfloxacin, reference compound] |  |  |  |  |  | MIC value relative to its original value (S. aureus [5]; by the 15th passage): over 120 times
